We go through 22 molecules from patent US5314910A, “Ester inhibitors” (Cortech Inc., priority 1993, dated 1994).

The test system of one test is ischemia reperfusion injuries (myocardial infarct size). Description: Ischemia reperfusion injury in dogs, myocardial infarct size. The test is classed as in vivo, dog.
Settings: not given
The method, then: Experiments have been conducted on dogs to study the effect of the compounds of the invention in the treatment of ischemia reperfusion injuries.
The protocol used in the experiment referred to in the preceding paragraph involved the following:
Male mongrel dogs (13 to 17 kg) were anesthetized with sodium pentobarbital, 30 mg/kg i.v., intubated and ventilated with room air via a Harvard respirator. Lead II of the electrocardiogram and hemodynamics were monitored continuously throughout the course of the experiment. A catheter was inserted into the left carotid artery and advanced into the left ventricle for the continuous recording of left ventricular pressure. […] After 24 hr of reperfusion, the animal was reanesthetized, the thoracotomy incision opened, the heart fibrillated electrically and removed rapidly for postmortem quantification of infarct size.
Animals were randomized to receive either the test compound or a placebo (diluent) administered as an intracoronary infusion via a catheter inserted into the left circumflex coronary artery just distal to the point at which the vessel is occluded. The dose was determined on the basis of known pharmacokinetic data and the infusion was maintained throughout the 90 period of regional ischemia as well as during the 24 hour reperfusion period. […]
Consider `CCC(C(=O)Oc1ccc([S+](C)[O-])cc1)c1cccn1C` (centres unmarked) [Compound 16, 4-Methylsulfinylphenyl 2-(1-Methyl-2-pyrrole)butyrate], for which the “reduction in infarct size compared to the controls (in words)” value is “significant reduction in infarct size”.

The target of the next test is T1, human neutrophil elastase (HNE) (Homo sapiens, UniProt P08246).
T1 sequence (P08246 30-267): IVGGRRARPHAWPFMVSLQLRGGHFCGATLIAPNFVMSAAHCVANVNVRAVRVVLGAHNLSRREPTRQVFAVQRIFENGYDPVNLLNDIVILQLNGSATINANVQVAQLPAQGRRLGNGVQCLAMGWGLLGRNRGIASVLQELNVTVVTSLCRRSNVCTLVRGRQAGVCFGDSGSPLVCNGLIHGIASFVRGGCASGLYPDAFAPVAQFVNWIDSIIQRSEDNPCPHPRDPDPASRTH
In words: Potency (I50 Determination), HNE inhibition. The test is classed as biochemical. The note with it: substrate N-methoxysuccinyl-ala-ala-pro-val-pNA, pH 7.7, 7 minutes incubation at room temperature, 405 nm. As to the method: Potency (I50 Determination)
A) 0.075 M sodium phosphate, 20% dimethyl sulfoxide (DMSO), pH 7.7=substrate and inhibitor buffer
B) 0.075 M sodium phosphate, no DMSO, pH 7.7=inhibitor buffer
C) 10 mM human neutrophil elastase (HNE) substrate=N-methoxysuccinyl-ala-ala-pro-val-pNA in DMSO
D) 0.01 M sodium acetate, 20% DMSO, pH 5.5=enzyme buffer (dilution)
E) 0.01 M sodium acetate, pH 5.5 enzyme buffer (storage)
F) HNE (1 mg) dissolved in 1 ML of reagent E for storage at -20° C.
Make a 10 mM stock of the inhibitor in DMSO. Dilute an aliquot (10 μL) up to 1.0 mL in reagent A (100 μM). Serially dilute 100 μL of the 100 μM stock to […], 1.0, 0.1, 0.01 μM in reagent A. Apply 100 μL of the diluted material to the wells of a 96-well plate. Dilute an aliquot of reagent F 1:150 in reagent D, apply 50 μL aliquots to the indicated wells and incubate for 7 minutes at room temperature.
The HNE substrate solution is made by taking 100 μL of reagent C into 500 μL of reagent A and 400 μL of reagent B. After the 7 minutes of incubation, the substrate (50 μL) is applied to each well. The HNE catalyzed reaction is then monitored spectrophotometrically at 405 nm using an ELISA plate reader machine (UVMAX, Molecular Devices) which processes the raw data with an on-board kinetics program. The enzyme activity is plotted against different inhibitor concentrations and the […] is determined by using a curve fitting software program. Once the "screening" I50 has been approximated, a more precise I50 value can be obtained by examination of inhibitor concentrations around this value.
Usually IC50 stands for the concentration that gives 50% inhibition. For `CCC(C(=O)Oc1ccc([S+](C)[O-])cc1)c1cccn1C` (centres unmarked) [Compound 16, 4-Methylsulfinylphenyl 2-(1-Methyl-2-pyrrole)butyrate], the concentration for half-maximal inhibition (IC50) stood at 460 nM.
Turning to `CCC(C(=O)Oc1ccc([S+](C)[O-])cc1)c1coc2ccccc12` (centres unmarked) [Compound 5], the 50% inhibitory concentration (IC50) amounted to 420 nM.
Still for that read-out and setting: the value for `CCC(C(=O)Oc1ccc([S+](C)[O-])cc1)c1ccsc1` (centres unmarked) [Compound 12, 4-Methylsulfinylphenyl 2-(3-thiophene)butyrate] was 130 nM.
For the molecule `CCC(C(=O)Oc1ccc(SC)cc1)c1cccn1C` (centres unmarked) [Compound 15, 4-Methylmercaptophenyl 2-(1-Methyl-2-pyrrole)butyrate], the half-maximal inhibitory concentration (IC50) turned out to be 6200 nM.
On the same count and under the same terms, next, `CCC(C(=O)Oc1ccc(SC)cc1)c1c[nH]c2ccccc12` (centres unmarked) [Compound 21]: 33000 nM; `CCC(C(=O)Oc1ccc([N+](=O)[O-])cc1)c1cccs1` (centres unmarked) [Compound 10]: 270 nM.
In turn, `CCC(C(=O)Oc1ccc(SC)cc1)c1ccoc1` (centres unmarked) [Compound 1] registered an IC50 of 6060 nM.
Take `CCC(C(=O)Oc1ccc(S(C)(=O)=O)cc1)c1ccsc1` (centres unmarked) [Compound 13, 4-Methylsulfonylphenyl 1-(3-thiophene)butyrate]: the half-maximal inhibitory concentration (IC50) is 50 nM.
The same measure, in the same setting: the value for `CCC(C(=O)Oc1ccc([N+](=O)[O-])cc1)c1ccsc1` (centres unmarked) [Compound 14] was 120 nM; that for `CCC(C(=O)Oc1ccc(S(C)(=O)=O)cc1)c1ccoc1` (centres unmarked) [Compound 3] was 470 nM; that for `CCC(C(=O)Oc1ccc(S(C)(=O)=O)cc1)c1coc2ccccc12` (centres unmarked) [Compound 6] was 150 nM.
With `CCC(C(=O)Oc1ccc(S(C)(=O)=O)cc1)c1cccn1C` (centres unmarked) [Compound 17, 4-Methylsulfonylphenyl 2-(1-Methyl-2-pyrrole)butyrate], half-maximal inhibition (IC50) required 60 nM.
The molecule `CCC(C(=O)Oc1ccc(SC)cc1)c1coc2ccccc12` (centres unmarked) [Compound 4] had an IC50 of 3800 nM.
On the same count and under the same terms, the value for `CCC(C(=O)Oc1ccc([S+]([O-])CC(C)(C)C(=O)O)cc1)c1cccn1C` (centres unmarked) [Compound 20, 4-(2,-Carboxy-2'-methylpropylsulfinyl)phenyl 2-(1-Methyl-2-pyrrole)butyrate] was 590 nM.
Regarding `CCC(C(=O)Oc1ccc([S+](C)[O-])cc1)c1cccs1` (centres unmarked) [Compound 8], the IC50 was 430 nM.
Still for that read-out and setting: next, `CCC(C(=O)Oc1ccc([S+](C)[O-])cc1)c1ccoc1` (centres unmarked) [Compound 2]: 1440 nM; `CCC(C(=O)Oc1ccc(S(C)(=O)=O)cc1)c1cccs1` (centres unmarked) [Compound 9]: 290 nM; `CCC(C(=O)Oc1ccc([N+](=O)[O-])cc1)c1cccn1C` (centres unmarked) [Compound 18]: 200 nM.
The molecule `CCC(C(=O)Oc1ccc([S+](C)[O-])cc1)c1c[nH]c2ccccc12` (centres unmarked) [Compound 22] returned an IC50 of 1900 nM.
The same measure, in the same setting: next, `CCC(C(=O)Oc1ccc(SC)cc1)c1ccsc1` (centres unmarked) [Compound 11, 4-Methylmercaptophenyl 2-(3-thiophene)butyrate]: 1500 nM; `CCC(C(=O)Oc1ccc(SC)cc1)c1cccs1` (centres unmarked) [Compound 7]: 3000 nM.
In turn, `CCC(C(=O)Oc1ccc(SCC(C)(C)C(=O)O)cc1)c1cccn1C` (centres unmarked) [Compound 19, 4-(2'-Carboxy-2'-methylpropylmercapto)phenyl 2-(1-Methyl-2-pyrrole)butyrate] displayed a half-inhibitory concentration (IC50) of 200 nM.
